Measurements published in patent US5688767A, “Treatment of endotoxin-associated disorders with cationic peptides” (priority 1996, dated 1997).
In brackets after ≈: the same amount, converted by molar mass.

Columns and labels:
[1] = system: Acinetobacter calcoaceticus 8193; assay: MIC against Gram-negative bacteria; assay type: cell-based
Description: (§1) Bacteria included the Bort strain of E. coli (Bortolussi, et al., Inf. Immun., 25:293, 1979) that was originally derived from a case of neonatal meningitis, and which is therefore considered a relevant pathogenic strain to study, and the 0111:B4 strain of E. coli (kindly provided by Dr. D. Morrison) which is a standard source of endotoxin. (Kelly, et al., Inf. Immun., 59:4491, 1991). In addition, P. aeruginosa PA01 strain H103, P. aeruginosa M2, P. aeruginosa K799, Eschericha coli UB 1005, Enterobacter cloacae 218S, Salmonella typhimurium MS7953s, Klebsiella pneumoniae ATCC 13883, Xanthomonas maltophilia ATCC 13637, and Acinetobacter calcoacetious 8193 were employed. LPS was obtained from E. coli Bort by the technique of Westphal and Jann, (Westphal, et al., Acad. Press, Inc. NY., 5:83) and from P. aeruginosa H103 by the method of Darveau and Hancock, (Darveau, et al., J. Bacteriol, 155:831, […]). E. coli 0111:B4 LPS was purchased from Sigma.

[2] = system: Klebsiella pneumoniae ATCC 13883; assay: MIC against Gram-negative bacteria; assay type: cell-based
Description: as §1

[3] = system: Xanthomonas maltophilia ATCC 13637; assay: MIC against Gram-negative bacteria; assay type: cell-based
Description: as §1

[4] = system: LPS-induced TNF in RAW 264.7 cells; assay: Preincubation of RAW cells with peptide, wash, and supernatant transfer before LPS; assay type: cell-based, murine; details: for depression of TNF induction by aspirated medium containing CEMA: fresh RAW cells
Description: In order to determine how rapidly CEMA reduced LPS-induced TNF production, E. coli 0111:B4 or Bort LPS was added at time 0 to RAW macrophages. CEMA or Polymyxin B was added at time 0, 30 and 60 minutes. Levels of TNF were measured after 6 hours. […] To confirm that CEMA was acting on LPS rather than directly upon macrophage cell lines, 20 μg of CEMA was added to RAW cells and incubated for 60 minutes prior to aspiration of the medium and washing the cells 3 times with HBSS (Hanks Buffered Salt Solution).
To ensure that the cationic peptides were interacting with the LPS rather than the cell lines, […], and after incubation at 37° C. in 5% CO2 for 60 minutes, the supernatant was removed and added to a second well of untreated RAW 264.7 cells. Fresh medium was added to the peptide-treated RAW cells and 100 ng/ml of LPS was then added to both the peptide-treated cells and those reconstituted with supernatant, and these wells assayed for TNF production after 6 hours incubation at 37° C. in 5% CO2.
Both CEME and CEMA were reproducibly able to inhibit the induction, by E. coli 0111:B4 LPS, of TNF secretion by RAW 264.7 cells (Table 10). […] Virtually the same results were obtained with E. coli Bort LPS and in preliminary experiments with P. aeruginosa strain H 103 LPS. […] In contrast the supernatants from these preincubations (which presumably contained the peptides) when added to fresh RAW 264.7 cells, were able to suppress the ability of these cells to induce TNF in response to LPS stimulation, producing only 4451 units per ml;.

LPS-induced endotoxemia = assay: Protection from lethal LPS endotoxicity in galactosamine-sensitized mouse endotoxic shock model; assay type: in vivo, mice; details: for % Mortality / dead/total: LPS 10 ug
Description: The ability of CEME and CEMA to protect against LPS-induced endotoxemia was assessed in vivo. Mice (8-10 weeks old) were injected intraperitoneally with […] D-galactosamine (Dgal) to sensitize them to LPS according to the mode of Galanos (Galanos, et al., Proc. Natl. Acad. Sci., USA, 76:5939-5943, 1979), followed by 0, 50, 100, or 200 μg CEME or CEMA in 100 μl. Immediately afterwards LPS (10 or 20 μg) in 100 μl was injected.
Mice are naturally resistant to LPS. […] Endotoxic shock was induced by intraperitoneal injection of 10 or 20 μg of E. coli 0111:B4 LPS in phosphate-buffered saline (PBS), pH 7.2 into galactosamine-sensitized 8-10 week old female CD-1 mice (Galanos, C., supra; Freudenberg, M. A., Inf. Immun., 51:891, 1986). In experiments involving peptides, 50-200 μg in 100 μl sterile water injected at separate intraperitoneal sites immediately before or after LPS injection. In survival experiments, survival was monitored at 24 to 48 hours post injection. In experiments measuring TNF, blood was withdrawn by cardiac puncture at timed intervals up to 8 hours after the injections and allowed to clot prior to measurement of TNF in the serum.
In contrast when CEMA was injected at around the same time as LPS, but at separate site in the peritoneum, it protected mice in a dose dependant fashion (FIG. 17). Endotoxemia was induced with 10 μg of E. coli 0111:B4 LPS injected into the peritoneum. Subsequently 50, 100, or 200 μg (2.2, 4.4, and 8.7 mg/kg) of CEME or CEMA was injected into a separate site in the peritoneum. […] mice were assessed for each experimental point. Mortality was observed after 24 hrs.

P. aeruginosa strain M2 = assay: Survival of neutropenic mice challenged intraperitoneally with bacteria; assay type: in vivo, Pseudomonas aeruginosa
Description: To measure the anti-bacterial effect of peptides, a similar strategy was employed. Female CD-1 mice were rendered neutropenic with 3 injections of cyclophosphamide as described previously. (Cryz, S. J., Inf. Immun., 39(2): 1067, 1983) An […] dose of Pseudomonas aeruginosa strain M2 (approximately 10^2 organisms per mouse) was injected intra peritoneally and in the single dose experiments, 100 μl of PBS or sterile water containing 200 μg (8.7 mg/kg) of a cationic peptide was injected immediately afterwards. […] Survival was recorded at 24 and 48 hours.

[5] = single dose 200 μg (8.7 mg/kg) i.p.
[6] = two injections at 2 hours and 12 hour after P. aeruginosa

## CC[C@H](C)[C@H](NC(=O)CNC(=O)[C@@H](NC(=O)[C@H](CCCCN)NC(=O)[C@H](CCCCN)NC(=O)[C@H](Cc1ccccc1)NC(=O)[C@H](CC(C)C)NC(=O)[C@H](CCCCN)NC(=O)[C@H](Cc1c[nH]c2ccccc12)NC(=O)[C@@H](N)CCCCN)[C@@H](C)CC)C(=O)NCC(=O)N[C@@H](C)C(=O)N[C@H](C(=O)N[C@@H](CC(C)C)C(=O)N[C@@H](CCCCN)C(=O)N[C@H](C(=O)N[C@@H](CC(C)C)C(=O)N[C@H](C(=O)N[C@H](C(=O)NCC(=O)N[C@@H](CC(C)C)C(=O)N1CCC[C@H]1C(=O)N[C@@H](C)C(=O)N[C@@H](CC(C)C)C(=O)N[C@@H](CCCCN)C(=O)N[C@@H](CC(C)C)C(=O)N[C@H](C(=O)N[C@@H](CCCCN)C(=O)O)[C@@H](C)O)[C@@H](C)O)[C@@H](C)O)C(C)C)C(C)C [CEMA]
[1]
  MIC: 1 µg/mL (≈ 0.326 µM)
[2]
  MIC: 12 µg/mL (≈ 3.91 µM)
[3]
  MIC: 12 µg/mL (≈ 3.91 µM)
[4]; 20 μg CEMA preincubated 60 minutes, washed 3 times, then 10 ng or 100 ng of LPS
  TNF induction in washed RAW cells: 14,000-20,000 Units of TNF per ml
[4]; CEMA 20 μg/ml preincubated 60 minutes, supernatant removed, fresh medium and 100 ng/ml E. coli 0111:B4 LPS
  TNF induction in peptide-preincubated RAW 264.7 cells: 19062 Units per ml
[4]; 10 ng E. coli Bort LPS
  depression of TNF induction by aspirated medium containing CEMA: 98.5%
[4]; 100 ng E. coli Bort LPS
  depression of TNF induction by aspirated medium containing CEMA: 75%
[4]; supernatants from CEMA 20 μg/ml preincubations, LPS stimulation
  TNF induction in fresh RAW 264.7 cells given preincubation supernatants: 4451 units per ml
LPS-induced endotoxemia; 10 μg E. coli 0111:B4 LPS, peptide 50 μg
  survival: 60%
LPS-induced endotoxemia; 10 μg E. coli 0111:B4 LPS, peptide 100 μg
  survival: 75%
LPS-induced endotoxemia; 10 μg E. coli 0111:B4 LPS, peptide 200 μg (8.7 mg/kg)
  survival / mice protected: 78%
LPS-induced endotoxemia; peptide 50 ug
  % Mortality: 40%
  dead/total: 2/5
LPS-induced endotoxemia; peptide 100 ug
  % Mortality: 25%
  dead/total: 2/8
LPS-induced endotoxemia; peptide 200 ug
  % Mortality: 22%
  dead/total: 2/9
P. aeruginosa strain M2; [5]
  Survival (%): 43.3%
  Survival (survivors/total): 13/30
P. aeruginosa strain M2; [6]
  Survival (%): 55.0%
  Survival (survivors/total): 11/20
